Assay in all cases: Methyl transferase scintillation proximity assay
Common to all, as to type: biochemical
Conditions in all cases: average of two measurements; for inhibition at 10 µM: read-out: MTases Inhibition (%)
(SPA uses beads or plates that emit light when radiolabelled molecules are held near them.)

Test [1] has as its target T1, DOT1L (Homo sapiens, UniProt Q8TEK3).
T1 construct: purchased DiscoverX BROMOscan (bromodomains); SGC in-house methyltransferase panel
As for the experimental part: (§1) Assays measuring lysine and arginine methyl transferase activity have been described in Scheer et al.. A radioactivity-based scintillation proximity assay was used to monitor incorporation of a tritium-labeled methyl group into the biotinylated substrate of the methyl transferase. A 10-μl reaction containing ^3H-SAM and substrate at concentrations close to the apparent Km values for each enzyme was prepared. The reactions were quenched with 10 μl of 7.5 M guanidine hydrochloride; 180 μl of 20 mM Tris buffer (pH 8.0) were added; and the mixture was transferred to a 96-well FlashPlate and incubated for 1 h. The counts per minute (CPM) was measured on a TopCount plate reader. The CPM in the absence of compound or enzyme was defined as 100% activity and background (0%), respectively, for each dataset.

Test [2] concerns the target T2, G9A (Homo sapiens, UniProt Q96KQ7).
T2 construct: purchased DiscoverX BROMOscan (bromodomains); SGC in-house methyltransferase panel
T2 sequence (Q96KQ7 1-1210): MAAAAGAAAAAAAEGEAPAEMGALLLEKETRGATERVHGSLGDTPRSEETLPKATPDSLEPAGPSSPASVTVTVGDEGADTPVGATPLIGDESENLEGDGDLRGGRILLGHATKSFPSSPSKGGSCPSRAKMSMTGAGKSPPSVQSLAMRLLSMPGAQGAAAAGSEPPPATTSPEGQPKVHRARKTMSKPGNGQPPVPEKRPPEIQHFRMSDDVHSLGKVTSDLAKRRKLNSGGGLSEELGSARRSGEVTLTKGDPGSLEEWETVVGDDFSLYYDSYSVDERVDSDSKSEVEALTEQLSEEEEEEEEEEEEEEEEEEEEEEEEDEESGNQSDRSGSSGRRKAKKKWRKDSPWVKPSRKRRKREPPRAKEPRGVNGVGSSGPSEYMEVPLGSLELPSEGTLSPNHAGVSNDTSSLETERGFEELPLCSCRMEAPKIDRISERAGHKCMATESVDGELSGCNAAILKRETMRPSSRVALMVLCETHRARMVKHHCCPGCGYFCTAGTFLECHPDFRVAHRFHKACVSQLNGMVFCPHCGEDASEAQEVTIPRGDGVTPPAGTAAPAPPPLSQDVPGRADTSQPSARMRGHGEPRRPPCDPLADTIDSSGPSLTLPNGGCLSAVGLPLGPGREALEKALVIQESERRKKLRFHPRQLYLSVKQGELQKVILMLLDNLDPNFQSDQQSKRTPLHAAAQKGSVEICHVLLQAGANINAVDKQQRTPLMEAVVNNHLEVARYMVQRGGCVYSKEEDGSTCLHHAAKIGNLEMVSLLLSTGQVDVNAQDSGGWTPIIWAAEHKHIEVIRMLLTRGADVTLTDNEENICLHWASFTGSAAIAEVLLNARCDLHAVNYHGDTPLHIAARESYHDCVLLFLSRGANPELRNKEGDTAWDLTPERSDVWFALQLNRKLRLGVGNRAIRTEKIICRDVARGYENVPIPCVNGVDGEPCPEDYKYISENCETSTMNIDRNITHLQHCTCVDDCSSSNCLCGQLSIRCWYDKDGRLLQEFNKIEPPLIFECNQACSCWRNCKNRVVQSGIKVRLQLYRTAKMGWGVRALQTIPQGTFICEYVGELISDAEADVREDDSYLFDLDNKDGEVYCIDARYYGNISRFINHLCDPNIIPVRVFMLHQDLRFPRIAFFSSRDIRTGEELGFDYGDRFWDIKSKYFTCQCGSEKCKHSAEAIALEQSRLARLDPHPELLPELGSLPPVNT
As for the experimental part:
as §1

Test [3] addresses T3, MLL3 (pentameric) (Homo sapiens, UniProt Q8NEZ4).
T3 construct: purchased DiscoverX BROMOscan (bromodomains); SGC in-house methyltransferase panel
The protocol: as §1

The target in test [4] is T4, PRMT4 (Homo sapiens, UniProt Q86X55).
T4 construct: purchased DiscoverX BROMOscan (bromodomains); SGC in-house methyltransferase panel
T4 sequence (Q86X55 1-608): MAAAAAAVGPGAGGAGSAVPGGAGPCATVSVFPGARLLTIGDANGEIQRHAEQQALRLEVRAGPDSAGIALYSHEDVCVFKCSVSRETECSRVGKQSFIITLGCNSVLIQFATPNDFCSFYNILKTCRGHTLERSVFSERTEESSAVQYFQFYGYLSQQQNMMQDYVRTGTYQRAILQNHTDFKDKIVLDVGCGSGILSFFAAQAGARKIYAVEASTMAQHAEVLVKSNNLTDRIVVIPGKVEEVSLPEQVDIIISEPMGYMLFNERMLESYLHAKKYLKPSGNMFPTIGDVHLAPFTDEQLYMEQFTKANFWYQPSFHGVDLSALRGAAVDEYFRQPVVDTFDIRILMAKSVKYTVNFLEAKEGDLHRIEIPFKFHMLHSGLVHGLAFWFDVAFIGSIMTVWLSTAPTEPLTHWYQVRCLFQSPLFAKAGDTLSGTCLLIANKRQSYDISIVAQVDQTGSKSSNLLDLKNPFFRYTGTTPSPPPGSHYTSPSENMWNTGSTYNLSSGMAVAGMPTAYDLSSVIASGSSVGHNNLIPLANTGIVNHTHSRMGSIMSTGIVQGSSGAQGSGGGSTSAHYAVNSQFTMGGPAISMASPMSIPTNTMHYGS
The protocol: as §1

Test [5] deals with T5, SUV420H1 (Homo sapiens, UniProt Q4FZB7).
T5 construct: purchased DiscoverX BROMOscan (bromodomains); SGC in-house methyltransferase panel
T5 sequence (Q4FZB7 whole entry): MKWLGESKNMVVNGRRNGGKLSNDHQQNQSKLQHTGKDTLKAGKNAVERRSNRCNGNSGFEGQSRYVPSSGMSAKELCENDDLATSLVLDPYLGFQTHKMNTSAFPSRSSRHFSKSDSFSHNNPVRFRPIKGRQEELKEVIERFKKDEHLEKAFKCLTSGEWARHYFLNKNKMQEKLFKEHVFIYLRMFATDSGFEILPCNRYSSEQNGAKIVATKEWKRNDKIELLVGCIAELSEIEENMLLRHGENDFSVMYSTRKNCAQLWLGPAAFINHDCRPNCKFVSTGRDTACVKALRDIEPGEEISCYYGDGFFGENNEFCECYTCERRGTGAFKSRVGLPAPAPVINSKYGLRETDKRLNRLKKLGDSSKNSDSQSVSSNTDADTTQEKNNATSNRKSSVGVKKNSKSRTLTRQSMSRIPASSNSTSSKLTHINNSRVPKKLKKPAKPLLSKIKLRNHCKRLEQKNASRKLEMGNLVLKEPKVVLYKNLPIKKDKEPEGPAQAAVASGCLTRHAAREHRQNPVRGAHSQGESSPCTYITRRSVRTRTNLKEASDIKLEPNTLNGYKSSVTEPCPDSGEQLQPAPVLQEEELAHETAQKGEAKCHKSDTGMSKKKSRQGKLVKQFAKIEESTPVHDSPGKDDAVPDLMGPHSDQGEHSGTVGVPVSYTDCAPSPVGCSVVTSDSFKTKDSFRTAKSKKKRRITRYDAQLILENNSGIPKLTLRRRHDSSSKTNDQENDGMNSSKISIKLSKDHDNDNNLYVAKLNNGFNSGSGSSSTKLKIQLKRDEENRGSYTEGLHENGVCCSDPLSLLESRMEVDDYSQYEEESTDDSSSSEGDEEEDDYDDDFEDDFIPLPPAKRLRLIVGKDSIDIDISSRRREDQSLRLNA
The protocol: as §1

T1 sequence (Q8TEK3 whole entry): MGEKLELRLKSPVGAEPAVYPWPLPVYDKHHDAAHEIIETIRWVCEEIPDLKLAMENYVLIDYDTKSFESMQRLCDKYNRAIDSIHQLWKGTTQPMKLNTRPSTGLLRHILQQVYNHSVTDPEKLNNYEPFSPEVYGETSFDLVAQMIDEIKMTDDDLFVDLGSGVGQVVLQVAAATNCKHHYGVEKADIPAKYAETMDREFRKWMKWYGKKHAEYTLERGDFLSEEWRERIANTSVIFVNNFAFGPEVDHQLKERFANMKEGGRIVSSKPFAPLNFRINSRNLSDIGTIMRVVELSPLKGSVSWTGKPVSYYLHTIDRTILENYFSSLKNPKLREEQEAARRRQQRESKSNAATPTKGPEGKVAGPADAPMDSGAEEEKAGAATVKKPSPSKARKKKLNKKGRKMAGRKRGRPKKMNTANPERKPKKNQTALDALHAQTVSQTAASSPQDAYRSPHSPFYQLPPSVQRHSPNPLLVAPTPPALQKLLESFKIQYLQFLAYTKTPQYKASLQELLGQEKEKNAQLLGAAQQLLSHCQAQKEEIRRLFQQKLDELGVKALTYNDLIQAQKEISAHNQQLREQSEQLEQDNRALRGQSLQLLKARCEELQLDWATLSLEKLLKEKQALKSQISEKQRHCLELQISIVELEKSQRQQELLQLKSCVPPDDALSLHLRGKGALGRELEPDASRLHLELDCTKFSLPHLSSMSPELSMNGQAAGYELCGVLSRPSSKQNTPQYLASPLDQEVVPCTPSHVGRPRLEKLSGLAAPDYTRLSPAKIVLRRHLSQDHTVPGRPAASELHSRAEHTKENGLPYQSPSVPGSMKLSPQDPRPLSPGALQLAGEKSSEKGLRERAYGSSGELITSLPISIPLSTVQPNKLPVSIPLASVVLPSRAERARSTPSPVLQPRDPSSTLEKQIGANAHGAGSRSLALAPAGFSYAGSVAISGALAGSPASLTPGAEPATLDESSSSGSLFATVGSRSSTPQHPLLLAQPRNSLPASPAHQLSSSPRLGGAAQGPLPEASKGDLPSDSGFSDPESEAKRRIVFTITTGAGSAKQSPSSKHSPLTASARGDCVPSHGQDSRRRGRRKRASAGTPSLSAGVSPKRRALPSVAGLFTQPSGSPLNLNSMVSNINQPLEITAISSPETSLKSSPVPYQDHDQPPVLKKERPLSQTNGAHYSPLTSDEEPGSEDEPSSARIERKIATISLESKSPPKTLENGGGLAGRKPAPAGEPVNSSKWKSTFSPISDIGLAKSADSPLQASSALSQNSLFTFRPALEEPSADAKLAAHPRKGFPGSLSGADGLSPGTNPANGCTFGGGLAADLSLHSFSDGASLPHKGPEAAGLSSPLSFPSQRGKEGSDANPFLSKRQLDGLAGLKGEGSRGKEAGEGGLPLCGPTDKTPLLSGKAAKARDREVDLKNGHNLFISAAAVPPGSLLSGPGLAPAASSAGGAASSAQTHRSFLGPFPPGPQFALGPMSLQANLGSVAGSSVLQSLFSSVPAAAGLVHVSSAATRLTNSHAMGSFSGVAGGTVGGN

Usually inhibition stands for the relative decrease from the control value, in per cent. For `Cc1nnc2c3ccccc3c(N[C@@H](C)[C@H](c3ccccc3)N(C)C)nn12` [L-Moses], the inhibition at 10 µM was 1% in test [1]; -3% in test [2]; 1% in test [3]; 6% in test [4]; 4% in test [5].

In the case of `CN(C)CCCOc1ccc(-c2cc(NCCCn3cccn3)nc(S(C)(=O)=O)n2)cc1` [TP-238], the inhibition at 10 µM in test [1] is 6%; in test [2], 7%; in test [3], -3%; in test [4], 3%; in test [5], 3%.

Take `Cc1c(NC(=O)c2cc(C(N)=O)nc3cc(F)ccc23)c(C(F)(F)F)nn1Cc1ccc(C(C)(C)C)cc1` [BAY-588]: the inhibition at 10 µM in test [1] was 3%; in test [2], 3%; in test [3] it was 7%; in test [4], 9%; in test [5] it was -5%.

As for `Cc1c(NC(=O)c2cc(C(N)=O)nc3cc(F)ccc23)c(C(F)(F)F)nn1Cc1ccc(C#N)cc1` [BAY-876], the inhibition at 10 µM is -6% in test [1]; -3% in test [2]; 0% in test [3]; 1% in test [4]; -1% in test [5].

On to `COc1ccccc1C(=O)Nc1cc2c(cc1N1CCNC[C@H]1C)n(C)c(=O)n2C` [GSK6853], for which the “MTases Inhibition (%)” value in test [1] (10µM) is 10%; in test [2] (10µM) it was -2%; in test [3] (10µM), 2%; in test [4] (10µM) it was 2%; in test [5] (10µM), 5%.

As for `CO[C@H]1CNC[C@@H](OCC2CCC(F)(F)CC2)[C@@H]1Nc1ncc(-c2cncc(C)c2)c2cc(C)c(=O)[nH]c12` [GSK8814], the inhibition at 10 µM is 5% in test [1]; -2% in test [2]; 0% in test [3]; 1% in test [4]; -3% in test [5].

Regarding `COc1cc(Cl)c(C(=O)N[C@@H](CN[C@H]2CC[C@@H](N)CC2)Cc2ccc(C#N)cc2)cc1-c1ccc(CN[C@H](C)c2ccc(C)cc2)o1` [BAY-850], the inhibition at 10 µM stood at 3% in test [1]; 7% in test [2]; 0% in test [3]; 25% in test [4]; 5% in test [5].

Regarding `CN1C[C@H](Nc2cnn(C)c(=O)c2Br)C[C@H](c2ccccc2)C1` [GSK4027], the inhibition at 10 µM is -2% in test [1]; 1% in test [2]; 2% in test [3]; -2% in test [4]; 8% in test [5].

Values taken from article PMC6478789, “A chemical toolbox for the study of bromodomains and epigenetic signaling” (Nature Communications, 2019).
